Experimental data: ChEMBL document CHEMBL1250488, “Structural and functional basis of resistance to neuraminidase inhibitors of influenza B viruses” (J Med Chem, 2010)

Experiments:
[1] = Inhibition of Influenza B virus (B/Perth/211/2001) recombinant wild type neuraminidase expressed in Sf21 insect cells after 60 mins by MUNANA based assay
[2] = Inhibition of Influenza B virus B/Gifu/11/2005 wild type neuraminidase expressed in Sf21 insect cells preincubated for 30 mins measured after 60 mins by MUNANA based assay
[3] = Inhibition of Influenza B virus (B/Perth/211/2001) wild type recombinant neuraminidase expressed in Sf21 insect cells preincubated for 30 mins measured after 60 mins by MUNANA based assay
[4] = Inhibition of Influenza B virus B/Gifu/11/2005 wild type neuraminidase expressed in Sf21 insect cells after 60 mins by MUNANA based assay

| SMILES | IC50 [1] | Ki [1] | IC50 [2] | Ki [2] | IC50 [3] | Ki [3] | Ki [4] |
| --- | --- | --- | --- | --- | --- | --- | --- |
| O=C(O)C1(F)O[C@H]([C@H](O)[C@H](O)CO)[C@H](O)[C@@H](O)C1F (some centres not stated) | 37700 nM |  |  |  |  |  |  |
| CCC(CC)[C@H](NC(C)=O)[C@@H]1[C@H](O)[C@@H](C(=O)O)C[C@H]1NC(=N)N [PERAMIVIR ANHYDROUS] |  | 1.2 nM | 2.1 nM | 0.3 nM | 2.8 nM | 0.6 nM | 0.7 nM |
